Values of other authors in patent US20110213558A1, “METHOD FOR PREDICTING ACTIVATION ENERGY USING AN ATOMIC FINGERPRINT DESCRIPTOR OR AN ATOMIC DESCRIPTOR” (Bioinformatics & Molecular Design Research Center, priority 2008, published 2011).
Read-outs that look alike come from different tables or passages of the source.

Legend:
[1] = system: cytochrome P450; details: in vitro
[2] = system: cytochrome P450; details: in vitro; remark: listed apart in the source

Row | Structure (SMILES) | Experimental metabolic rate ([1]; atom # 1) | Experimental metabolic rate ([1]; atom # 2) | Experimental metabolic rate ([1]; atom # 3) | Experimental metabolic rate ([2]; atom # 2) | Experimental metabolic rate ([2]; atom # 3) | Experimental metabolic rate ([2]; atom # 4)
1 | Cc1ccc(CCl)cc1 [1-chloromethyl-4-methyl-benzene] | 16.0 | 84.0 |  |  |  | 
2 | Clc1ccccc1 [Chlorobenzene] |  |  |  | 17-19 | 5-9 | 71-79
3 | CCc1ccccc1 [Ethylbenzene] | 0.2 | 99.8 |  |  |  | 
4 | CCCCCC [Hexane] | 4.5 | 49 | 46.5 |  |  | 
5 | COc1ccccc1 [Methoxybenzene] |  |  |  | 15-24 | 1-3 | 62-75
6 | CCCCCCCC [Octane] | 2.5 | 97.5 |  |  |  | 
